Data published in patent US20110245081A1, “HERBICIDE COMPOSITION FOR LAWN” (priority 2006, published 2011).
Like-named read-outs stand apart in the source and are kept apart here.

Key:
Assay type in all cases: in vivo
[1] = tested on: Erigeron canadensis; test: Test Example 1: soil treatment by mixing, herbicidal effect; conditions: 1080 h
[2] = tested on: Polygonum blumei; test: as above; conditions: 1080 h
[3] = tested on: Chenopodium ficifolium; test: as above; conditions: 1080 h
[4] = tested on: Erigeron canadensis; test: Test Example 2: foliage and soil treatment by mixing, herbicidal effect; conditions: 1080 h
[5] = tested on: Chenopodium ficifolium; test: as above; conditions: 1080 h
[6] = tested on: Oxalis corniculata L.; test: Test Example 1: soil treatment by mixing, herbicidal effect; conditions: 1080 h
Description: (§1) On a field of Zoysia japonica sectioned to 100 cm×100 cm, seeds of Digitaria ciliayis (Retz.) Koeler, Poa annua L., Polygonum hydropiper L., Euphorbia supine Rafin, Oxalis comiculata L., Cyperus microiria were sown and covered with 0.5 cm soil. Seven days after weeds sowing, treatment was conducted with watering amount of 200 cc/m^2. The prescribed amount of test compound was sprayed with a small spray in the form of the formulation prepared according to the above-mentioned examples or a wettable powder of a single compound diluted with water.
(§2) The herbicidal effect and the degree of phytotoxicity to the lawn were studied 45 days after the agent treatment.
(§3) Herbicidal effect: 100%: complete death 0%: no effect Phytotoxicity: 100%: complete death 0%: no phytotoxicity
(§4) In the tables, ai means the effective component.

[7] = tested on: Digitaria ciliayis (Retz.) Koeler; test: as above; conditions: 1080 h
Description: as §1, §2, §3, §4

[8] = tested on: Poa annua L.; test: as above; conditions: 1080 h
Description: as §1, §2, §3, §4

[9] = tested on: Oxalis corniculata L.; test: Test Example 2: foliage and soil treatment by mixing, herbicidal effect; conditions: 1080 h
Description: as §1, §3
(§5) A test section of Zoysia matrella had been prepared in the same method as in the Test Example 1 and on the 28th day after weeds sowing a treatment was conducted with watering amount of 200 cc/m2. The prescribed amount of test compound was sprayed with a small spray in the form of the formulation prepared according to the aforementioned examples or a wettable powder of a single compound diluted with water.
(§6) The herbicidal effect and the degree of phytotoxicity to the lawn were studied 45 days after the agent treatment in the same manner as Test Example 1.

[10] = tested on: Digitaria ciliayis (Retz.) Koeler; test: as above; conditions: 1080 h
Description: as §1, §3, §5, §6

[11] = tested on: Poa annua L.; test: as above; conditions: 1080 h
Description: as §1, §3, §5, §6

[12] = tested on: Polygonum blumei; test: as above; conditions: 1080 h
Description: as §1, §3, §5, §6

[13] = tested on: Zoysia matrella; conditions: foliage and soil treatment, 45 days
[14] = tested on: Zoysia matrella; conditions: soil treatment, 45 days
[15] = soil treatment, 45 days, Indanofan 1000 g ai/ha
[16] = foliage and soil treatment, 45 days, Indanofan 1000 g ai/ha
[17] = soil treatment, 45 days, Asulam 1500 g ai/ha
[18] = foliage and soil treatment, 45 days, Asulam 1500 g ai/ha
[19] = read-out: Herbicidal effect Polygonum blumei
[20] = read-out: Herbicidal effect Chenopodium ficifolium
[21] = read-out: Herbicidal effect Oxalis corniculata L.
[22] = read-out: Herbicidal effect Digitaria ciliayis (Retz.) Koeler
[23] = read-out: Herbicidal effect Poa annua L.
[24] = soil treatment, 45 days, Ethoxysulfuron 125 g ai/ha
[25] = foliage and soil treatment, 45 days, Ethoxysulfuron 125 g ai/ha
[26] = soil treatment, 45 days, Fentrazamide 1500 g ai/ha
[27] = foliage and soil treatment, 45 days, Fentrazamide 1500 g ai/ha
[28] = soil treatment, 45 days, Oxaziclomefone 150 g ai/ha
[29] = foliage and soil treatment, 45 days, Oxaziclomefone 150 g ai/ha

## CCC1(CC2(c3cccc(Cl)c3)CO2)C(=O)c2ccccc2C1=O (racemic) [Indanofan, (RS)-2-[2-(3-chlorophenyl)-2,3-epoxypropyl]-2-ethylindan-1,3-dione]
[1]; [15]
  pest or weed control at 1000 g/ha: 75%
[2]; [15]
  pest or weed control at 1000 g/ha: 60%
[3]; [15]
  pest or weed control at 1000 g/ha: 70%
[4]; [16]
  pest or weed control at 1000 g/ha: 0%
[5]; [16]
  pest or weed control at 1000 g/ha: 20%
[6]; [15]
  pest or weed control at 1000 g/ha: 50%
[7]; [15]
  pest or weed control at 1000 g/ha: 0%
[8]; [15]
  pest or weed control at 1000 g/ha: 0%
[9]; [16]
  pest or weed control at 1000 g/ha: 0%
[10]; [16]
  pest or weed control at 1000 g/ha: 30%
[11]; [16]
  pest or weed control at 1000 g/ha: 30%
[12]; [16]
  pest or weed control at 1000 g/ha: 0%

## COC(=O)NS(=O)(=O)c1ccc(N)cc1 [Asulam, methyl sulfanyl carbamate]
[1]; [17]
  pest or weed control at 1500 g/ha: 0%
[2]; [17]
  pest or weed control at 1500 g/ha: 0%
[3]; [17]
  pest or weed control at 1500 g/ha: 0%
[4]; [18]
  pest or weed control at 1500 g/ha: 60%
[5]; [18]
  pest or weed control at 1500 g/ha: 60%
[6]; [17]
  pest or weed control at 1500 g/ha: 0%
[7]; [17]
  pest or weed control at 1500 g/ha: 20%
[8]; [17]
  pest or weed control at 1500 g/ha: 20%
[9]; [18]
  pest or weed control at 1500 g/ha: 60%
[10]; [18]
  pest or weed control at 1500 g/ha: 40%
[11]; [18]
  pest or weed control at 1500 g/ha: 30%
[12]; [18]
  pest or weed control at 1500 g/ha: 70%

## CCN(CC)C(=O)n1cnc(S(=O)(=O)c2c(C)cc(C)cc2C)n1 [Cafenstrole, N,N-diethyl-3-meticylsulfonyl-1H-1,2,4-triazol-1-carboxamide]
[1]; soil, read-out: Herbicidal effect Erigeron canadensis
  pest or weed control at 2000 g/ha: 75%
[13]; Cafenstrole 2000 g ai/ha
  Zoysia matrella phytotoxicity: 0%
[2]; [19]
  pest or weed control at 2000 g/ha: 60%
[14]; Cafenstrole 2000 g ai/ha
  Zoysia matrella phytotoxicity: 0%
[3]; [20]
  pest or weed control at 2000 g/ha: 70%
[4]; read-out: Herbicidal effect Erigeron canadensis
  pest or weed control at 2000 g/ha: 0%
[5]; [20]
  pest or weed control at 2000 g/ha: 20%
[6]; [21]
  pest or weed control at 2000 g/ha: 50%
[7]; [22]
  pest or weed control at 2000 g/ha: 0%
[8]; [23]
  pest or weed control at 2000 g/ha: 0%
[9]; [21]
  pest or weed control at 2000 g/ha: 0%
[10]; [22]
  pest or weed control at 2000 g/ha: 40%
[11]; [23]
  pest or weed control at 2000 g/ha: 30%
[12]; [19]
  pest or weed control at 2000 g/ha: 0%

## CCOc1ccccc1OS(=O)(=O)NC(=O)Nc1nc(OC)cc(OC)n1 [Ethoxysulfuron, 1-(4,6-dimethoxypyrimidin-2-yl)-3-(2-ethoxyphenoxysulfonyl)urea]
[1]; [24]
  pest or weed control at 125 g/ha: 75%
[2]; [24]
  pest or weed control at 125 g/ha: 60%
[3]; [24]
  pest or weed control at 125 g/ha: 70%
[4]; [25]
  pest or weed control at 125 g/ha: 60%
[5]; [25]
  pest or weed control at 125 g/ha: 50%
[6]; [24]
  pest or weed control at 125 g/ha: 50%
[7]; [24]
  pest or weed control at 125 g/ha: 0%
[8]; [24]
  pest or weed control at 125 g/ha: 0%
[9]; [25]
  pest or weed control at 125 g/ha: 30%
[10]; [25]
  pest or weed control at 125 g/ha: 0%
[11]; [25]
  pest or weed control at 125 g/ha: 0%
[12]; [25]
  pest or weed control at 125 g/ha: 40%

## CCN(C(=O)n1nnn(-c2ccccc2Cl)c1=O)C1CCCCC1 [Fentrazamide, 4-(2-chlorophenyl)-N-cyclohexyl-N-ethyl-4,5-dihydro-5-oxo-1H-terazol-1-carboxamide]
[1]; [26]
  pest or weed control at 1500 g/ha: 0%
[13]; Fentrazamide 1500 g ai/ha
  Zoysia matrella phytotoxicity: 0%
[2]; [26]
  pest or weed control at 1500 g/ha: 0%
[14]; Fentrazamide 1500 g ai/ha
  Zoysia matrella phytotoxicity: 0%
[3]; [26]
  pest or weed control at 1500 g/ha: 20%
[4]; [27]
  pest or weed control at 1500 g/ha: 0%
[5]; [27]
  pest or weed control at 1500 g/ha: 0%
[6]; [26]
  pest or weed control at 1500 g/ha: 0%
[7]; [26]
  pest or weed control at 1500 g/ha: 90%
[8]; [26]
  pest or weed control at 1500 g/ha: 80%
[9]; [27]
  pest or weed control at 1500 g/ha: 0%
[10]; [27]
  pest or weed control at 1500 g/ha: 40%
[11]; [27]
  pest or weed control at 1500 g/ha: 30%
[12]; [27]
  pest or weed control at 1500 g/ha: 0%

## CC1=C(c2ccccc2)C(=O)N(C(C)(C)c2cc(Cl)cc(Cl)c2)CO1 [Oxaziclomefone, 3-[1-(3,5-dichlorophenyl)-1-methylethyl]-3,4-dihydro-6-methyl-5-phenyl-2H-1,3-oxazin-4-one]
[1]; [28]
  pest or weed control at 150 g/ha: 0%
[2]; [28]
  pest or weed control at 150 g/ha: 0%
[3]; [28]
  pest or weed control at 150 g/ha: 0%
[4]; [29]
  pest or weed control at 150 g/ha: 0%
[5]; [29]
  pest or weed control at 150 g/ha: 0%
[6]; [28]
  pest or weed control at 150 g/ha: 0%
[7]; [28]
  pest or weed control at 150 g/ha: 90%
[8]; [28]
  pest or weed control at 150 g/ha: 90%
[9]; [29]
  pest or weed control at 150 g/ha: 0%
[10]; [29]
  pest or weed control at 150 g/ha: 30%
[11]; [29]
  pest or weed control at 150 g/ha: 30%
[12]; [29]
  pest or weed control at 150 g/ha: 0%
